# According to patent US20250295619A1, “Use of Salvianolic Acid E in the Preparation of Drugs Targeting Senescent Cells, Inhibiting Tumors or Extending Lifespan” (Shanghai Institute of Nutrition and Health, Chinese Academy …, priority 2024, published 2025):
# Legend:
# PSC27 [1] = assay: Flow cytometry apoptosis of PSC27; type: cell-based, human; details: SAE
# Excerpt: Q2, distribution area of early apoptotic cells; Q3, distribution area of late apoptotic cells.
# PC3/PSC27 tumors [2] = assay: Disease-free survival of tumor-bearing NOD/SCID mice; type: in vivo, mouse; details: severe disease at tumor size ≥2000 mm3
# Excerpt: When the tumor volume in the vehicle, MIT, SAE and MIT/SAE groups exceeds 2000 mm3, it is considered that severe disease has occurred, and the mice need to be killed in time and the tumor bearing status should be detected. ^, P>0.05; **, P<0.01.
# Then the survival of animals in different drug-treated groups was compared, primarily in a time-prolonged manner to assess the consequences of tumor progression. In this preclinical cohort, animals were monitored for prostate tumor growth, and severe disease was judged to have occurred once the […] tumor burden in mice was prominent (size≥2000 mm3), which was a method used for assessing progression of tumors and other diseases in certain conditions.
# PSC27 [3] = assay: CCK8 survival of proliferating and senescent PSC27 cells; type: cell-based, human
# Procedure: (§1) To cause cell damage, 50 μg/mL bleomycin (bleomycin, BLEO) was added to the culture medium when PSC27 cells grew to 80% (abbreviated as PSC27-CTRL). After 12 hours of drug treatment, the cells were simply washed 3 times with PBS, left in the culture medium for 7-10 days, and then the subsequent experiments were performed.
# Pharmacodynamic analysis was conducted on an organic chemical drug library (TOPSCIENCE) with a total of 1470 small molecule compounds, mostly derived from medicinal plants and had anti-senescence potential. Each product was diluted to a 96-well plate according to a certain concentration gradient, and the density was 5000 cells per well. The medium uses DMEM, and the working concentration of natural product (or compound) is generally controlled at […] to 1 mM. After 3-7 days of drug treatment, cell proliferation was measured with CCK-8 Cell Counting Kit (based on WST-8 principle, Vazyme), and cell apoptosis activity was determined with Caspase 3/7 Activity Kit (Promega).
# PC3/PSC27 tumors [4] = assay: DNA damage and apoptosis in tumors of treated mice; type: in vivo, mouse
# Excerpt: To investigate mechanisms directly supporting this senescence-associated pattern with expression and reversal of SASP in MIT-administered mice, the inventors dissected tumors in animals treated with both drugs 7 days after the first SAE administration, and the time point of 7 days after administration was selected mainly because drug-resistant clones had not yet formed in cancer cells in the lesion at this time. […] As supporting evidence, when SAE was applied during treatment, caspase 3 cleavage activity was increased, which was a typical hallmark of apoptosis (FIG. 29).
# PSC27 [5] = assay: SA-β-Gal staining of PSC27 cells (bleomycin-induced senescence, increasing SAE concentration); type: cell-based, human
# Procedure: The P value of positive proportion of cells in these experimental groups for SAE at the concentrations of 100 μM, 200 μM, 400 μM, 800 μM, 1600 μM, 2000 μM and 3000 μM are statistically significant compared with the data at 0 μM.
# as §1
# Senescence-associated B-galactosidase (SA-β-Gal) staining was performed following a previously reported procedure (Debacq-Chainiaux, et. al., 2009). Briefly, cells in culture dishes were washed with PBS and fixed at room temperature. Cells were fixed in 2% formaldehyde and 0.2% glutaraldehyde for 3 minutes. SA-β-Gal was used for staining with freshly prepared staining solution overnight at 37° C. Images were taken on the next day and the percentage of positive cells per unit area was calculated.
# [6] = test system: PC3/PSC27 transplanted tumors; assay: PC3/PSC27 xenograft tumor volume in NOD/SCID mice; type: in vivo, mouse; details: single agent
# Procedure: Every two weeks was a dosing cycle, and MIT (mitoxantrone) was intraperitoneally administered to the mice on the first day of the 3rd/5th/7th weeks. From the first day of the 5th week, the mice were intraperitoneally administered with SAE, […]. After the 8-week course of treatment, the mice were dissected for pathological identification and expression analysis.
# All experimental mouse experiments were carried out in strict accordance with the relevant regulations of the Institutional Animal Care and Use Committee (IACUC), Shanghai Institutes for Biological Sciences, Chinese Academy of Sciences. Immuno-deficient mice (NOD-SCID mice, ICR) (body weight about 25 g) aged 6-8 weeks were used for animal experiments related to the present patent. Stromal cells PSC27 and epithelial cells PC3 were mixed at a predetermined ratio of 1:4, and each graft contained 1.25×10^6 cells for tissue remodeling. The xenograft tumors were implanted into mice by subcutaneous transplantation, and the animals were euthanized 8 weeks after the end of the transplantation surgery. Tumor volume was calculated according to the following formula: V=(π/6)×((1+w)/2)3 (V, volume; l, length; w, width).
# In a preclinical treatment trial, subcutaneously transplanted mice were fed with a standard experimental diet, after 2 weeks chemotherapy drugs mitoxantrone (MIT, dose: 0.2 mg/kg) and/or SAE (500 μl, dose: 10 mg/kg) via intraperitoneal administration. The time points were: the former was administrated on the first day of the 3rd, 5th and 7th weeks, and the latter was administrated on the first day of the 5th and 7th weeks. A total of 3 cycles of MIT administration were carried out throughout the course of treatment, and each cycle lasted for 2 weeks. After the course of treatment, mouse tumors were harvested for volume measurement and histological analysis. Each mouse cumulatively received 0.6 mg/kg body weight of MIT and 30 mg/kg body weight of SAE. In order to cause systemic expression of SASP factors induced by chemotherapy, MIT was administered to mice through intravenous infusion according to the above steps and sequence, but the dose was reduced to 0.1 mg/kg body weight/each time (the cumulative dose of MIT received in the whole course of treatment was 0.3 mg/kg body weight) to reduce drug-related toxicity. The chemotherapy experiment ended at the end of the 8th week, and the mice were dissected immediately after sacrifice, and the xenograft tumors were collected and used for pathological system analysis.
compound,measurement,setting,value
"O=C(/C=C/c1ccc(O)c(O)c1/C(=C\c1ccc(O)c(O)c1)C(=O)O[C@H](Cc1ccc(O)c(O)c1)C(=O)O)O[C@H](Cc1ccc(O)c(O)c1)C(=O)O [SAE, salvianolic acid E]",change of proliferating cells,PSC27 [1],not obvious
same,proportion of apoptosis of senescent PSC27 cells,PSC27 [1],significantly increased
same,viability of senescent PSC27 cells,PSC27 [1],significantly reduced
same,median survival of tumor-bearing mice,PC3/PSC27 tumors [2],only a marginal extension of survival
same,percentage of surviving senescent cells,PSC27 [3]; SAE 2000 μM,approximately 10%
same,survival of proliferating cells,PSC27 [3]; SAE 3000 μM,not significantly reduced
same,concentration from which significant death of senescent cells is induced,PSC27 [3]; vs control proliferating cells,200 µM
same,indices of DNA damage or apoptosis,PC3/PSC27 tumors [4]; MIT-treated animals administered with SAE,significantly enhanced
same,caspase 3 cleavage activity,PC3/PSC27 tumors [4]; SAE applied during treatment,significantly increased
same,degree of DNA damage and apoptosis,"PC3/PSC27 tumors [4]; single agent compared with placebo, 7 days after first SAE administration",could not induce DNA damage or cause apoptosis
same,SAE concentration at which senescent cells begin to be eliminated,PSC27 [5]; SA-β-Gal staining,200 µM
same,concentration at which the killing effect on senescent cells reaches a threshold,PSC27 [5]; SA-β-Gal staining,2000 µM
same,killing effect on senescent cells,PSC27 [5]; SAE increased to 3000 μM,not further enhanced
same,tumor shrinkage by the agent itself,[6],did not cause tumor shrinkage
